In patent US20050282818A1, “Ubiquitin ligase inhibitors” (Rigel Pharmaceuticals, Inc., priority 2004, published 2005) one finds IC50 data, which are given here for ten molecules.

Structures are written as SMILES. Like-named read-outs stand apart in the source and are kept apart here. Bounds are passed on as bounds.

Assay [1] concerns the target T1, TRAF6/Uev1A/Ubc13 (Homo sapiens, UniProt Q9Y4K3).
T1 sequence (Q9Y4K3 1-522): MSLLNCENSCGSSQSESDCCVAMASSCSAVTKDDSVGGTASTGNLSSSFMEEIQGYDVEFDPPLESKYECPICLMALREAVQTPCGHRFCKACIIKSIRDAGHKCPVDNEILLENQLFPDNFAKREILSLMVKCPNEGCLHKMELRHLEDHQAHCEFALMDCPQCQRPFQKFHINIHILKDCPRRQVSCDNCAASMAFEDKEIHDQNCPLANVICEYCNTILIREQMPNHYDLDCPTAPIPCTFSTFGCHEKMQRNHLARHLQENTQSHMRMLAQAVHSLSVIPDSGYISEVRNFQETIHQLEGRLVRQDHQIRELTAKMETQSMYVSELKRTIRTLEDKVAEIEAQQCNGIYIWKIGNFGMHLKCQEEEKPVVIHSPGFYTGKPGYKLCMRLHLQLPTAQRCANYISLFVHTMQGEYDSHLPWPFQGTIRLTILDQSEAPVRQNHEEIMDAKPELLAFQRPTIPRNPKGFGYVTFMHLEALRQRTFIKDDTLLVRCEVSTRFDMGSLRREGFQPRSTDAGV
Nature of the assay: TRAF6/Uev1A/Ubc13 plate-based ubiquitin ligase assay. In kind it is biochemical. The procedure, abridged: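 Ligase activity was read as luminescence from anti-Flag/HRP detection of Flag-ubiquitin bound to casein-blocked Ni-plates alongside His-ubiquitin after a 1 h room-temperature reaction. Buffer: 62.5 mM Tris pH 7.5, 6.25 mM MgCl2, 1.0 mM DTT, 2 μM ATP; E1, Uev1a/Ubc13 and TRAF6 added last to start. IC50s derived across compound concentrations.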

For assay [2], the system named is H1299 cells. Nature of the assay: Cell proliferation PAD assay, H1299. The conditions noted are these: Homo sapiens, 48 hours. Format: cell-based. A digest of the protocol:
(§1)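 Proliferation was scored by DAPI imaging of fixed cells, counting live, apoptotic and dead cells, after 48 h compound exposure at 37 °C, 5% CO2. Compound, dosed in duplicate 24 h post-plating (2,000 cells/well), came from 6.3-fold dilutions of a 10 mM stock diluted 500-fold.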

Assay [3] has as its system A549 cells. Nature of the assay: Cell proliferation PAD assay, A549. In kind it is cell-based. The conditions noted are these: Homo sapiens, 48 hours. A digest of the protocol:
as §1

In assay [4] the test system is OVCAR8 cells. Nature of the assay: Cell proliferation PAD assay, OVCAR8. Format: cell-based. The conditions noted are these: Homo sapiens, OVCAR-8, 6pt, 48 hours. The procedure: (§2) Cell lines used are available from American Type Culture Collection (ATCC), for example, cell cultures containing A549 (ATCC# CCL-185), HeLa (ATCC# CCL-2), HCT116 ATTC# CCL-247), and H1299 (ATCC# CRL-5803) cells were maintained in T175 flasks following the ATCC recommended media and handling procedures. […] A 20,000 cells/ml solution was made for plating. Cells were plated in black Packard 96 well plates by placing 100 μl per well (2,000 cells per well). […] The definitions of the cell types used are as follows: A549 is lung carcinoma; HI 299 is non-small cell lung carcinoma; HI 155 is non-small cell lung carcinoma; AsPC-1 is pancreatic adenocarcinoma; Caov-3 is ovarian adenocarcinoma; COLO 205 is colorectal adenocarcinoma; DLD-1 colorectal adenocarcinoma; HCT116 is colorectal carcinoma; DU 145 is prostate carcinoma; ES-2 is ovarian clear cell carcinoma; H460 is large cell lung carcinoma; HELA is cervical adenocarcinoma; MIA PaCa-2 is pancreatice carcinoma; OVCAR-3 is ovarian adenocarcinoma; OVCAR8 is ovarian carcinoma; PC3 is prostate adenocarcinoma; SK-OV-3 is ovarian adenocarcinoma; SU86.86 is pancreatic carcinoma; TOV-21G is avarian clear cell carcinoma; U2OS is bone osteosarcoma; is ASPC-I is pancreatic adenocarcinoma; BXPC-3 is pabcreatic adenocarcinoma; HL60 is promyeloblast promyelocytic leukemia; K562 is bone marrow chronic myelogenous leukemia; L1210 is mouse lymphocytic leukemia; MOLT3 is T lymphoblast acute lymphoblastic leukemia; MOLT4 is T lymphoblast acute lymphoblastic leukemia; SW620 is colorectal adenocarcinoma; THP-1 is monocyte acute monocytic leukemia; U937 is histiocytic lymphoma; and UACC-257 is melanoma.
(§3) Compounds and additional media were added 24 hours after cell plating. […] All compound testing was done in duplicate using 6.3 fold dilutions starting with 10 mM. […] Taxol and at least one additional control were run on all plates. Three microliters of the compound master plate were added to deep well blocks containing 750 μl of RPMI media. One hundred microliters were transferred from the compound/media deep well blocks to the plated cells resulting in a 500 fold dilution of the compounds. Cells were grown at 37° C., 5% CO2 for 48 hours.
(§4) Cells to be analyzed by photography were fixed and stained. One hundred microliters of media were removed and 100 μl of 9.3% formamide was added to each well. Plates were left on the benchtop for 45 minutes. A staining solution containing 1.55 μl of 1 mg/ml DAPI added to 18.75 ml PBS was warmed for 15 minutes at 37° C. The cells were aspirated prior to washing with 100 μl of PBS. Seventy microliters of PBS were aspirated and 170 μl of the DAPI solution were added to each well of fixed cells. Plates were left at room temperature for one hour then aspirated and washed twice with 100 μl of PBS. The stained cells were left at 4° C. for a minimum of 16 hours before photographic analysis with Array Scan II (Cellomics). Analysis of the photographic images to determine numbers of live cells (proliferation), apoptotic cells and dead cells, were according to the methods described in U.S. Utility patent application Ser. No. 10/652,440, which incorporated herein in its entirety.

Assay [5] concerns UACC-257 cells. Nature of the assay: Cell proliferation PAD assay, UACC-257. In kind it is cell-based. The settings on record: Homo sapiens, UACC257 cells, 6pt, 48 hours. The procedure: as §2, §3, §4
Assay [6] deals with HELA cells. Nature of the assay: Cell proliferation PAD assay, HeLa. Format: cell-based. The settings on record: Homo sapiens, 6pt, 48 hours.
Source text: (§5) Table 3 illustrates the inhibitory activity of the compounds of the invention determined by the PAD assay described above in a number of cell types. Apoptosis was not
as §2
(§6) Compounds and additional media were added 24 hours after cell plating. A compound master plate was created with concentrations 500 times greater than the final concentration added to the cells. All compound testing was done in duplicate using 6.3 fold dilutions starting with 10 mM. All outside wells (and 4 internal wells) were DMSO controls. Taxol and at least one additional control were run on all plates. Three microliters of the compound master plate were added to deep well blocks containing 750 μl of RPMI media. One hundred microliters were transferred from the compound/media deep well blocks to the plated cells resulting in a 500 fold dilution of the compounds. Cells were grown at 37° C., 5% CO2 for 48 hours.
as §4

Assay [7] relates to HCT116 cells. Nature of the assay: Cell proliferation PAD assay, HCT116. The conditions noted are these: Homo sapiens, HCT-116, 6pt, 48 hours, read-out: HCT116 6pt. In kind it is cell-based.
Source text: as §5, §2, §6, §4

In assay [8] the test system is U2OS cells. Nature of the assay: Cell proliferation PAD assay, U2OS. The settings on record: Homo sapiens, 6pt, 48 hours. In kind it is cell-based.
Source text: as §5, §2, §6, §4

In assay [9] the test system is DLD-1 cells. Nature of the assay: Cell proliferation PAD assay, DLD-1. Format: cell-based. The conditions noted are these: Homo sapiens, DLD1 cells, 6pt, 48 hours.
Source text: as §5, §2, §6, §4

Where [10] appears, read: NCI-H1299, 3pt, read-out: H1299 3pt.
Where [11] appears, read: NCI-H1299, 6pt, read-out: H1299 6pt.

Regarding `O=C(CN1CCN(c2ccc([N+](=O)[O-])c3nonc23)CC1)N1CCOCC1` [compound 107, 4-[4-(2-morpholin-4-yl-2-oxoethyl)piperazin-1-yl]-7-nitro-2,1,3-benzoxadiazole], the IC50 was at least 20 µM in [1]; at least 20 µM in assay [2] (setting [10]); at least 20 µM in assay [2] (setting [11]); at least 20 µM in assay [3] (3pt, read-out: A549 3pt); at least 20 µM in assay [3] (6pt, read-out: A549 6pt); at least 20 µM in assay [4]. For the same molecule, in [5], the IC50 is at least 20 µM.
Take `O=S(=O)(Nc1ccc2[nH]ncc2c1)c1ccc(Cl)c2nonc12` [compound 218, 7-chloro-N-1H-indazol-5-yl-2,1,3-benzoxadiazole-4-sulfonamide]: the IC50 was 1 to 20 µM in [6]; at least 20 µM in assay [1]; 1 to 20 µM in assay [7]; 1 to 20 µM in assay [2] (setting [10]); 1 to 20 µM in assay [2] (setting [11]); at least 20 µM in assay [3] (3pt, read-out: A549 3pt). Besides, the IC50 in assay [3] (6pt, read-out: A549 6pt) was at least 20 µM; in assay [8], 1 to 20 µM; in assay [9] it was 1 to 20 µM.
Regarding `O=[N+]([O-])c1cc(Cl)c(Oc2ccc(S(=O)(=O)Nc3cccc4nonc34)cc2Cl)c(Cl)c1` [compound 79, N-2,1,3-benzoxadiazol-4-yl-3-chloro-4-(2,6-dichloro-4-nitrophenoxy)benzenesulfonamide], the IC50 lay in the range of 1 to 20 µM in assay [1]; 1 to 20 µM in [2] (setting [10]); 1 to 20 µM in assay [2] (setting [11]); 1 to 20 µM in assay [3] (3pt, read-out: A549 3pt); 1 to 20 µM in [3] (6pt, read-out: A549 6pt); 1 to 20 µM in assay [4]. Moreover, the IC50 in assay [5] was at least 20 µM.
`CC1CN(S(=O)(=O)c2c(Cl)ccc3nonc23)CC(C)O1` (stereo not shown) [compound 204, 5-chloro-4-[(2,6-dimethylmorpholin-4-yl)sulfonyl]-2,1,3-benzoxadiazole]: the IC50 was 1 to 20 µM in [6]; at least 20 µM in assay [1]; 1 to 20 µM in assay [7]; below 1 µM in assay [2] (setting [10]); below 1 µM in assay [2] (setting [11]); 1 to 20 µM in [3] (3pt, read-out: A549 3pt). The IC50 in assay [3] (6pt, read-out: A549 6pt) is at least 20 µM; in assay [8] it was below 1 µM; in [9] it was below 1 µM.
As to `O=S(=O)(c1ccc(F)c2nonc12)N1CCN(c2ncc(C(F)(F)F)cc2Cl)CC1` [compound 164, 4-({4-[3-chloro-5-(trifluoromethyl)pyridin-2-yl]piperazin-1-yl}sulfonyl)-7-fluoro-2,1,3-benzoxadiazole], the IC50 in assay [1] was below 1 µM; in assay [2] (setting [10]) it was 1 to 20 µM; in [2] (setting [11]) it was 1 to 20 µM; in assay [3] (3pt, read-out: A549 3pt), 1 to 20 µM; in [3] (6pt, read-out: A549 6pt) it was 1 to 20 µM; in assay [8], at least 20 µM.
With `Cc1cccc(N2CCN(S(=O)(=O)c3ccc(Cl)c4nonc34)CC2)n1` [compound 194, 4-chloro-7-{[4-(6-methylpyridin-2-yl)piperazin-1-yl]sulfonyl}-2,1,3-benzoxadiazole], the IC50 in [1] was at least 20 µM; in assay [2] (setting [10]) it was 1 to 20 µM; in assay [2] (setting [11]), at least 20 µM; in [3] (3pt, read-out: A549 3pt), at least 20 µM; in assay [3] (6pt, read-out: A549 6pt) it was at least 20 µM; in assay [8] it was below 1 µM.
For `O=S(=O)(Nc1cccc2cccnc12)c1cccc2nonc12` [compound 64, N-quinolin-8-yl-2,1,3-benzoxadiazole-4-sulfonamide], the IC50 in assay [6] was 1 to 20 µM; in assay [7], 1 to 20 µM; in [2] (setting [10]), 1 to 20 µM; in [2] (setting [11]), below 1 µM; in assay [3] (3pt, read-out: A549 3pt), 1 to 20 µM; in [3] (6pt, read-out: A549 6pt), below 1 µM. The IC50 in assay [8] and in [9] was below 1 µM in each case.
On to `COc1ccccc1NS(=O)(=O)c1cccc2nonc12` [compound 11, N-(2-methoxyphenyl)-2,1,3-benzoxadiazole-4-sulfonamide], for which the IC50 in assay [1] was 1 to 20 µM; in assay [2] (setting [10]), at least 20 µM; in assay [3] (3pt, read-out: A549 3pt), at least 20 µM; in assay [4], at least 20 µM; in assay [5], at least 20 µM.
In the case of `O=S(=O)(c1ccc(Cl)c2nonc12)N1CCN(c2ncc(C(F)(F)F)cc2Cl)CC1` [compound 169, 4-chloro-7-({4-[3-chloro-5-(trifluoromethyl)pyridin-2-yl]piperazin-1-yl}sulfonyl)-2,1,3-benzoxadiazole], the IC50 is 1 to 20 µM in assay [1]; at least 20 µM in assay [2] (setting [10]); below 1 µM in assay [2] (setting [11]); at least 20 µM in [3] (3pt, read-out: A549 3pt); 1 to 20 µM in [3] (6pt, read-out: A549 6pt); below 1 µM in [8].
`COC(=O)c1ccc(Nc2ccc(S(=O)(=O)Nc3ccc(C(=O)OC)cc3)c3nonc23)cc1` [compound 9, Methyl 4-{[(7-{[4-(methoxycarbonyl)phenyl]amino}-2,1,3-benzoxadiazol-4-yl)sulfonyl]amino}benzoate]: the IC50 in assay [1] is at least 20 µM; in assay [2] (setting [10]) it was at least 20 µM; in [2] (setting [11]), at least 20 µM; in assay [3] (3pt, read-out: A549 3pt), at least 20 µM; in [3] (6pt, read-out: A549 6pt), 1 to 20 µM; in assay [4], at least 20 µM. The molecule further displayed an IC50 in assay [5] of at least 20 µM.
